Consider eight compounds from patent US20080009546A1 (Chevron U.S.A. Inc., priority 2005, published 2008).

Where two headings read alike, the source gives them in different places.

In one experiment the target is NMDA receptor. Briefly: [3H]MK-801 binding assay, NMDA receptors in guinea pig brain membranes. As to conditions: for Relative affinity: compared to that of Memantine. Here is the method: Hartley guinea pigs were sacrificed, and their brains were quickly removed and weighed. The brains then were homogenized in 50 mM Tris HCl buffer, pH 7.7, using a Polytron homogenizer. The homogenate was centrifuged at 40,000×g for 15 min, rehomogenized, and centrifuged again. The final pellet was resuspended in Tris-HCl, pH 7.7, at a final concentration of 6.67 mg original wet weight of tissue/ml. […] The samples were then filtered through glass fiber filters on a Tomtec cell harvester. The filters were washed 3 times with 3 ml of cold buffer. Filters were dried overnight and counted next day on a Wallac Betaplate Reader.
The binding experiments were conducted as follows. […] For each compound, graphs were prepared containing individual competition curves obtained for that compound. IC50 values and Hill coefficients were calculated using the program Prism. Ki values were calculated using the Chang Prusoff transformation: Ki=IC50/(1+L/Kd)
where L is radioligand concentration and Kd is the binding affinity of the radioligand, as determined previously by saturation analysis. […] In each experiment, one standard compound was simultaneously run on each 96 well plate.

In experiment [1] the test system is primary neurons from rat cerebral cortex. The experiment in a line: NMDA-induced LDH release assay in primary cortical neurons (neuroprotection). Particulars: two experiments, 300 uM NMDA + 50 μM glycine 15 minutes, LDH after 24 hours, read-out: average EC50 (±SD), NMDA-induced LDH release. It counts as cell-based. The procedure:
The neuroprotective properties of drugs have been studied in vitro, using neurons cultured from cortex, cerebellum or retina. […] Neurotoxicity is determined in this assay by measuring lactate dehydrogenase (LDH), a method which is simple, accurate and reproducible. We conducted pilot studies to test if poly-lysine-coated plates would be suitable as a matrix upon which to plate fetal neurons, compared to astrocyte-coated plates. We also compared the use of growth medium to neurobasal medium supplemented with B27 in the pilot experiments. The concentrations of NMDA (300-500 μM), glycine (10-50 μM), and memantine (10-100 μM) were varied, and optimum concentrations and times determined from these pilot studies were then chosen for the main study. The assay is described below.
Fetal rat neocortical cells were cultured on a mouse astroglial feeder layer. To obtain mouse astroglial cells for the feeder layer, cortices were harvested from 1-day old Swiss Webster mice (Charles River, Hollister, Calif.) according to the procedure described by Rose et al (1993). After dissecting cortices in ice-cold dissecting medium, they were minced and incubated in 0.09% trypsin in media stock for 1 hr, followed by resuspension in growth medium containing 10% equine serum and 10% fetal bovine serum. A single-cell suspension was obtained by triturating through fire-bored glass pipettes, and the resulting cell suspension was plated at a density of 0.5-0.75 hemispheres/24-well plate/9.6 ml, with 0.4 ml/well. Plates were incubated in a humidified incubator at 37° C., 5% CO2. Astroglial cells become confluent in about 2-3 weeks, at which time these cultures are ready to be used as feeder layers upon which neuronal cultures can be plated. Neuronal cells were obtained from gestational Sprague-Dawley rats E16-E18, using a similar dissection procedure. Rat embryos were dissected to obtain cortical tissue, which was plated as a single-cell suspension at a density of 1.4 hemispheres/24-well plate/9.6 ml, with 0.4 ml/well. These cells were plated on the existing astroglial feeder layer, and were incubated at 37° C., 5% CO2. After 5 days in culture, cytosine arabinoside (10 μM) was added to the wells to inhibit glial cell proliferation, and after 24 hours, the medium was replaced with fresh growth medium. Cells were fed with fresh growth medium every 2 days, until the experiments were performed. For coating plates with poly-lysine, we used poly-d-lysine hydrobromide (Sigma Cat # P7280) at a concentration of 0.1 mg/ml to coat each well using a minimum volume of 0.2 ml/well. After coating for 5 minutes, the solution was aspirated and wells were rinsed thoroughly with sterile tissue culture grade water. After drying for 2 hours, plates were ready for use. Neuronal cultures were plated onto poly-lysine-coated plates at the same density as above. For the pilot study, some of the cultures were fed with 1:1 ratio of growth medium: neurobasal medium (GIBCO)+B-27 supplement (2%), while the rest of the cultures were fed with growth medium alone (Losi et al., 2006). For the main study, we used astroglial feeder layers to plate the neuronal cultures, and used a mix (1:1) of growth medium with neurobasal medium+B-27 supplement for feeding the cultures.
After 11-14 days in culture, neuronal cells were confluent and experiments were performed. Cells were washed twice using sterile Locke's buffer (154 mM NaCl, 5.6 mM KCl, 2.3 mM CaCl2, 3.6 mM NaHCO3, 5.5 mM D-glucose, 5 mM HEPES, pH 7.4), and then exposed to the various treatment compounds. […] After 15 minutes, cultures were washed twice and incubated overnight in media stock. After 24 hours, supernatants and lysates were collected to measure LDH activity. LDH activity was measured by the reduction of NAD, which was utilized in the stoichiometric conversion of a tetrazolium dye using a kit (Sigma TOX-7). Supernatants were removed from the wells and centrifuged before LDH measurements. The adherent cells were lysed to obtain total LDH. […]
In general terms: Release of lactate dehydrogenase indicates damage to the cell membrane.

Setting [2] is: guinea pig brain membrane preparation (Table 29), read-out: Ki.
[3] abbreviates: Rattus norvegicus, Primary neuron.

For orientation: Ki means the equilibrium dissociation constant of an inhibitor or competing ligand from its target. The EC50 is the concentration giving half of the maximal effect. In the case of 2-aminotriamantane [MDT-50], the Ki on NMDA receptor ([3H]MK-801 (1 nM), guinea pig brain membrane preparation, read-out: Ki (binding affinity)) came out at 19.1 µM. In the experiment with NMDA receptor, the Relative affinity was determined as 0.038. In addition, in experiment [1], the EC50 turned out to be 107 ± 88.3 µM.
Compound `CC12CC3CC4C5CC(N)(CC41)CC2C5C3` [MDT-24, 1-methyl-4-aminodiamantane] had a Relative affinity with NMDA receptor of 0.045. For the same compound, the Ki on NMDA receptor (setting [2]) amounted to 13.4 ± 5.1 µM. Moreover, the EC50 in experiment [1] (setting [3]) was found to be 34.3 ± 11.3 µM.
In the experiment on NMDA receptor, `CC12CC3CC4C1CC1CC2C(N)(C3)C4(C)C1` (stereo not shown) [MDT-43, 1,6-dimethyl-2-aminodiamantane] returned a Relative affinity of 0.143. For the same compound, the Ki at NMDA receptor (setting [2]) is 5.1 ± 0.7 µM. The EC50 in experiment [1] (setting [3]) stood at 28.4 ± 12.8 µM.
Compound `CC12CC3C4CC5(C)CC3C(C1)C(N)(C5)C4C2` [MDT-51, 4,9-dimethyl-1-aminodiamantane] showed a Relative affinity with NMDA receptor of 0.155. Moreover, the Ki at NMDA receptor (setting [2]) came out at 4.7 ± 2.4 µM. Moreover, the concentration for a half-maximal effect (EC50) in experiment [1] (setting [3]) stood at 15.7 ± 9.1 µM.
The compound `CC12CC3CC4C1CC1(CN)CC2C(C3)C4(C)C1` [MDT-65] gave a Relative affinity in the experiment with NMDA receptor of 0.100. Further, on NMDA receptor (setting [2]), the Ki was 7.3 ± 1.1 µM.
“mixture of 1-amino-4-methyldiamantane and 2-amino-4-methyldiamantane [MDT-32]” returned a Relative affinity with NMDA receptor of 0.064. Further, the Ki at NMDA receptor (setting [2]) was 11.4 ± 3.7 µM.
On the same counts, the results for “mixture of 1-methyl-2-aminodiamantane and 1-methyl-6-aminodiamantane [MDT-31]” are 0.187 and 3.9 ± 0.2 µM.
Turning to “mixture of 4-methyl-9-aminodiamantane and 4-aminodiamantane [MDT-34]”, the inhibition constant Ki on NMDA receptor (setting [2]) is more than 1000 µM.
